# Results from patent publication US6384080B1, “Anthranilic acid derivatives as inhibitors of the cGMP-phosphodiesterase” (Fujisawa Pharmaceutical Co., Ltd., priority 1998, dated 2002).
# Assays:
# [1] = tested on: isolated rat corpora cavernosa; assay: Nitroprusside-induced relaxation in isolated rat corpora cavernosa; set-up: species or system SD rat; settings: in the presence of the test compound (5×10^−8 M); strip constricted by 0.1 mM norepinephrine; control preparation 20%
# Experimental: (a) Effect of Test Compound on Nitroprusside or Ach-induced Relaxation in Isolated Rat Corpora Cavernosa.
# Male SD rats were anesthetized with sodium pentobarbital 50 mg/kg intraperitoneally, and the corpora cavernosa was excised. The tunica albuginea was dissected according to the methods described by Italiano et al. (Pharmacological Research, 30, No. 4, 1994) and used for in vitro pharmacological study. The erectile tissue strip was placed in a 25 ml organ bath containing Krebs-Ringer solution. The bath was maintained at 37° C. and bubbled with 95% O2 and 5% CO2. The strip was stretched with a resting force of 0.25 g, and isometric contraction were recorded via force development transducer on a recorder.
# The strip was equilibrated in the Krebs-Ringer solution for about 60 minutes, and preconstructed by 0.1 mM norepinephrine to ascertain the responsibility of each preparation. The strip was washed several times, and then constricted by 0.1 mM norepinephrine. After getting stable constrictile response to norepinephrine, the first dose-response curve for sodium nitroprusside or Ach(acetylcholine) was obtained. After washing a few times for 60 minutes, the strip was constricted by norepinephrine again, and the second dose-response curve for sodium nitroprusside or Ach was obtained. […]
# Male beagle = assay: Duration of detumescence (T75) after cavernous nerve electrical stimulation in anesthetized beagle; type: in vivo; settings: 0.1 mg/kg, i.v., cavernous nerve stimulation 7 Hz, 10 V, T75 = time from cessation of stimulation to 75% reduction of intracavernous pressure
# Experimental: (c) Male beagle weighing 8.0-12.0 kg were anesthetized with pentobarbital sodium (35 mg/kg, i.v.). After tracheotomy, the animal was artificially ventilated using a volume-cycled ventilator. The femoral artery was cannulated for continuous blood pressure and heart rate monitoring. The femoral vein was cannulated for maintenance of anesthesia and administration of tested compound.
# Either the left or right cavernous nerve was exposed posterolaterally to the prostate and a cuff electrode was placed around the nerve for electrical stimulation. A 21-gauge butterfly needle was placed in the corpus cavernousum and connected to a pressure transducer for intracavernous pressure. After a period of stabilization of all parameters, erection was induced by cavernous nerve electrically stimulation (7 Hz, 10 V) and the following was measured: the duration of detumescence (time (T75) from cessation of stimulation to 75% reduction of intracavernous pressure). The test compounds, i.e., N-(3,4-dimethoxybenzyl)-2-(cis-4-hydroxycyclohexylamino)-5-nitrobenzamide and (R)-N-(3,4-dimethoxybenzyl)-2-(2-hydroxy-1-methyl-ethylamino)-5-nitrobenzamide were each dissolved in 50% PEG400.
# rabbit corpora cavernosa = assay: Relaxation elicited by electrical field stimulation in rabbit corpora cavernosa; settings: at 5×10^−8 M
# Experimental: (b) Effect of test compounds on the relaxation elicited by electrical field stimulation in rabbit corpora cavernosa.
# The rabbit erectile tissue strip prepared according to the method described by Italiano et al. (Pharmacological Research, 30, No 4, 1994) was placed 25 ml organ bath containing Krebs-Ringer solution. The bath was maintained at 37° C. and bubbled with 95% O2 and 5% CO2. The solution also contained atropine (1 μM) and guanethidine (50 μM). The erectile tissue strip was stretched with a resting force of 0.25 g, and isometric contraction were recorded via force development transducer on a recorder. The bipolar platinum electrode connected to the electric stimulator was placed around the strip.
# The strip was equilibrated in the Krebs-Ringer solution for about 60 minutes and preconstricted by 0.1 mM norepinephrine to ascertain the responsibility of each preparation. The strip was washed several times, and then constricted by 0.1 mM norepinephrine. After getting stable contractile response to norepinephrine, the first electrical field stimulation (1 to 30 Hz, 20V, 0.5 msec duration, 90 sec interval) was delivered. 30 minutes after adding the tested compound, the second electrical field stimulation was delivered. […]
# SD rat = type: in vivo; settings: 32 mg/kg once a day for 14 consecutive days
# Experimental: Toxicities of Compound (I)
# Test on the toxicity by repetitive oral administration of the compounds, i.e., N-(3,4-dimethoxybenzyl)-2-(cis-4-hydroxycyclohexylamino)-5-nitrobenzamide and (R)-N-(3,4-dimethoxybenzyl)-2-(2-hydroxy-1-methylethylamino)-5-nitrobenzamide which were selected as representative compounds of this invention, in SD rat was conducted.
SMILES,Relaxant response elicited by 10 μM nitroprusside [1] [%],mean of prolongation of T75 (Male beagle) [s],relaxation of corpora cavernosa elicited by electrical field stimulation (effect in words) (rabbit corpora cavernosa),The dead (toxicity by repetitive oral administration) (SD rat)
"COc1ccc(CNC(=O)c2cc([N+](=O)[O-])ccc2N[C@H](C)CO)cc1OC [(R)-N-(3,4-Dimethoxybenzyl)-2-(2-hydroxy-(1-methylethylamino)-5-nitrobenzamide]",32,44,potentiated,could not be observed
"COc1ccc(CNC(=O)c2cc([N+](=O)[O-])ccc2N[C@H]2CC[C@@H](O)CC2)cc1OC [N-(3,4-Dimethoxybenzyl)-2-(cis-4-hydroxycyclohexylamino)-5-nitrobenzamide]",–,52,potentiated,could not be observed
